Experimental findings from US9108903B2, “Amides as modulators of sodium channels” (VERTEX PHARMACEUTICALS INCORPORATED, priority 2013, dated 2015) are described below.

The target of the assay is human Nav1.8 (Homo sapiens (Human), UniProt Q9Y5Y9). As to the kind of experiment: E-VIPR optical membrane potential assay with electrical stimulation. Format: cell-based. As to conditions: HEK cells expressing human Nav1.8. An excerpt: Assays for Detecting and Measuring NaV Inhibition Properties of Compounds E-VIPR Optical Membrane Potential Assay Method with Electrical Stimulation
human Nav1.8, sequence (Q9Y5Y9 whole entry): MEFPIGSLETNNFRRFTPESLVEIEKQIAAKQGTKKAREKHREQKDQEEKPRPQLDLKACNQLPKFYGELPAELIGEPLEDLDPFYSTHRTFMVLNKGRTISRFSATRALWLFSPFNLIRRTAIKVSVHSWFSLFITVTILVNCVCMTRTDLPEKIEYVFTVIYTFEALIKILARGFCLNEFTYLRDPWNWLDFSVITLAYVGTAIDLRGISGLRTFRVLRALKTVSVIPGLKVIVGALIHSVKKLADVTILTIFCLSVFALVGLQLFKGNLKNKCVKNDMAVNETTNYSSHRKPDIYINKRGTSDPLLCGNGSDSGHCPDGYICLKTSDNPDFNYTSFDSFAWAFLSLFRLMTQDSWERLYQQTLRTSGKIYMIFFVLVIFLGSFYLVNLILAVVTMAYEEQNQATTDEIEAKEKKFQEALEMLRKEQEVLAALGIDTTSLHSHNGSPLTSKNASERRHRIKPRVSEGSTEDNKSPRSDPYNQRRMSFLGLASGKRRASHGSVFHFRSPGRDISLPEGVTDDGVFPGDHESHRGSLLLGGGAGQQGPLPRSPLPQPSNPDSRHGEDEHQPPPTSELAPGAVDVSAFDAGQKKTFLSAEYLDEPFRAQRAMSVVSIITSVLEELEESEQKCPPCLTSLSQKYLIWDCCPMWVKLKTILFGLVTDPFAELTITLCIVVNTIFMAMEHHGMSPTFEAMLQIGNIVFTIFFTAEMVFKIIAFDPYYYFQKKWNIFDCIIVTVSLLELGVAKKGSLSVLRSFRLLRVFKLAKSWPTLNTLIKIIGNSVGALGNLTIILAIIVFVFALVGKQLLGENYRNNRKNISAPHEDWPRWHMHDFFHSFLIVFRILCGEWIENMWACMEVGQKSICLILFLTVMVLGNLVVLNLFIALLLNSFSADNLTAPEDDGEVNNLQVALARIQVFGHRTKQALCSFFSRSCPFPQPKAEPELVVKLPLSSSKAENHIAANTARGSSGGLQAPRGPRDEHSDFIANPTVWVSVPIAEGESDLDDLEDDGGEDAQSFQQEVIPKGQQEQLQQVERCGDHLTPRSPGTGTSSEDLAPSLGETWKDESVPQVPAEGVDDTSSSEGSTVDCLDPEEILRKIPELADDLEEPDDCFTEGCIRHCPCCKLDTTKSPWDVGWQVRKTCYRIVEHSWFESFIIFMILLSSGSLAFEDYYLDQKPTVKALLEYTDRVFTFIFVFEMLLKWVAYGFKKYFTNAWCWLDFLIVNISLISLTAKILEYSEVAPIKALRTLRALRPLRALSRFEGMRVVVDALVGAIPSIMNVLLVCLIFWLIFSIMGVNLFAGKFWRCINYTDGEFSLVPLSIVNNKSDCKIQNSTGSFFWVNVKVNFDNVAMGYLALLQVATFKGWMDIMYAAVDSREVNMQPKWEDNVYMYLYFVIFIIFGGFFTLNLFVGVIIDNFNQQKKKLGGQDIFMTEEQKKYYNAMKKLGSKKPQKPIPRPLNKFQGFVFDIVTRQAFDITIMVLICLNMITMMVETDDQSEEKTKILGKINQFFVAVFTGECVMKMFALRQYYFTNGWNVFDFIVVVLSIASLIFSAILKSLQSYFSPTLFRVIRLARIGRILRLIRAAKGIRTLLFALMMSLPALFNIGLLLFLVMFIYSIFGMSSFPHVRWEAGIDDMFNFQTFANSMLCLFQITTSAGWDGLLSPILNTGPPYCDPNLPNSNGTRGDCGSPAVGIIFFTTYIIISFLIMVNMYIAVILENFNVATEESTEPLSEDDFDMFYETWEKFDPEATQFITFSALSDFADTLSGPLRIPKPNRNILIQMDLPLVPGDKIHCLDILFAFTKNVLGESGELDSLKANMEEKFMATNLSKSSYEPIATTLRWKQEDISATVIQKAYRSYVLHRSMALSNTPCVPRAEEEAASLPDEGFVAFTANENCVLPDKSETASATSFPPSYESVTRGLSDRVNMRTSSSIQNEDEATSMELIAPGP
Sodium channels are voltage-dependent proteins that can be activated by inducing membrane voltage changes by applying electric fields. The electrical stimulation instrument and methods of use are described in Ion Channel Assay Methods PCT/US01/21652, herein incorporated by reference and are referred to as E-VIPR. The instrument comprises a microtiter plate handler, an optical system for exciting the coumarin dye while simultaneously recording the coumarin and oxonol emissions, a waveform generator, a current- or voltage-controlled amplifier, and a device for inserting electrodes in well. Under integrated computer control, this instrument passes user-programmed electrical stimulus protocols to cells within the wells of the microtiter plate.
24 hours before the assay on E-VIPR, HEK cells expressing human Nav1.8 were seeded in 384-well poly-lysine coated plates at 15,000-20,000 cells per well. HEK cells were grown in media (exact composition is specific to each cell type and NaV subtype) supplemented with 10% FBS (Fetal Bovine Serum, qualified; GibcoBRL #16140-071) and 1% Pen-Strep (Penicillin-Streptomycin; GibcoBRL #15140-122). Cells were grown in vented cap flasks, in 90% humidity and 5% CO2.
100 mg/mL Pluronic F-127 (Sigma #P2443), in dry DMSO
Compound Plates: 384-well round bottom plate, e.g. Corning 384-well Polypropylene Round Bottom #3656
Cell Plates: 384-well tissue culture treated plate, e.g. Greiner #781091-1B
Bath1 buffer: Glucose 10 mM (1.8 g/L), Magnesium Chloride (Anhydrous), 1 mM (0.095 g/L), Calcium Chloride, 2 mM (0.222 g/L), HEPES 10 mM (2.38 g/L), Potassium Chloride, 4.5 mM (0.335 g/L), Sodium Chloride 160 mM (9.35 g/L).
Hexyl Dye Solution: Bath1 Buffer+0.5% β-cyclodextrin (make this prior to use, Sigma #C4767), 8 μM CC2-DMPE+2.5 μM DiSBAC6(3). To make the solution added volume of 10% Pluronic F127 stock equal to volumes of CC2-DMPE+DiSBAC6(3). The order of preparation was first mix Pluronic and CC2-DMPE, then added DiSBAC6(3) while vortexing, then added Bath1+β-Cyclodextrin.
1) Pre-spotted compounds (in neat DMSO) into compound plates. Vehicle control (neat DMSO), the positive control (20 mM DMSO stock tetracaine, 125 μM final in assay) and test compounds were added to each well at 160× desired final concentration in neat DMSO. Final compound plate volume was 80 μL (80-fold intermediate dilution from 1 μL DMSO spot; 160-fold final dilution after transfer to cell plate). Final DMSO concentration for all wells in assay was 0.625%.
2) Prepared Hexyl Dye Solution.
3) Prepared cell plates. On the day of the assay, medium was aspirated and cells were washed three times with 100 μL of Bath1 Solution, maintaining 25 μL residual volume in each well.
4) Dispensed 25 μL per well of Hexyl Dye Solution into cell plates. Incubated for 20-35 minutes at room temp or ambient conditions.
5) Dispensed 80 μL per well of Bath1 into compound plates. Acid Yellow-17 (1 mM) was added and Potassium Chloride was altered from 4.5 to 20 mM depending on the NaV subtype and assay sensitivity.
6) Washed cell plates three times with 100 μL per well of Bath1, leaving 25 μL of residual volume. Then transfered 25 uL per well from Compound Plates to Cell Plates. Incubated for 20-35 minutes at room temp/ambient condition.
7) Read Plate on E-VIPR. Used the current-controlled amplifier to deliver stimulation wave pulses for 10 seconds and a scan rate of 200 Hz. A pre-stimulus recording was performed for 0.5 seconds to obtain the un-stimulated intensities baseline. The stimulatory waveform was followed by 0.5 seconds of post-stimulation recording to examine the relaxation to the resting state.
Data was analyzed and reported as normalized ratios of emission intensities measured in the 460 nm and 580 nm channels. The response as a function of time was reported as the ratios obtained using the following formula: […]
“4-(4,5-dichloro-2-(4-fluoro-2-methoxyphenoxy)benzamido)picolinic acid [Compound 76]” yielded an IC50 of 12 nM.
The same measure for `O=C(O)c1ccc(NC(=O)c2ccc(C(F)(F)C(F)(F)F)cc2Oc2ccc(F)cc2Cl)cc1` [Compound 1, 4-(2-(2-chloro-4-fluorophenoxy)-4-(perfluoroethyl)benzamido)benzoic acid]: 17 nM; for `O=C(O)c1ccc(NC(=O)c2ccc(C(F)(F)C(F)(F)F)cc2Oc2ccc(F)cc2F)cc1` [Compound 2, 4-(2-(2,4-difluorophenoxy)-4-(perfluoroethyl)benzamido)benzoic acid]: 32 nM.
To `Cc1cc(F)ccc1Oc1cc(C(F)(F)C(F)(F)F)ccc1C(=O)Nc1ccc(C(=O)O)cc1` [Compound 3, 4-(2-(4-fluoro-2-methylphenoxy)-4-(perfluoroethyl)benzamido)benzoic acid] belongs 22 nM.
`O=C(O)c1ccc(NC(=O)c2ccc(C(F)(F)F)cc2Oc2ccc(F)cc2Cl)cc1` [Compound 4, 4-(2-(2-chloro-4-fluorophenoxy)-4-(trifluoromethyl)benzamido)benzoic acid]: 58 nM corresponded to half-maximal inhibition (IC50).
To `Cc1cc(F)ccc1Oc1cc(C(F)(F)F)ccc1C(=O)Nc1ccc(C(=O)O)cc1` [Compound 5, 4-(2-(4-fluoro-2-methylphenoxy)-4-(trifluoromethyl)benzamido)benzoic acid] belongs 60 nM; to `O=C(O)c1ccc(NC(=O)c2ccc(C(F)(F)F)cc2Oc2ccc(F)cc2F)cc1` [Compound 6, 4-(2-(2,4-difluorophenoxy)-4-(trifluoromethyl)benzamido)benzoic acid], 145 nM; to `O=C(O)c1ccc(NC(=O)c2ccc(C(F)(F)F)cc2Oc2ccc(OC(F)(F)F)cc2)cc1` [Compound 7, 4-(2-(4-(trifluoromethoxy)phenoxy)-4-(trifluoromethyl)benzamido)benzoic acid], 37 nM.
To `O=C(O)c1ccc(NC(=O)c2c(Oc3ccc(F)cc3F)cc(C(F)(F)F)cc2C(F)(F)F)cc1` [Compound 8, 4-(2-(2,4-difluorophenoxy)-4,6-bis(trifluoromethyl)benzamido)benzoic acid] belongs 405 nM.
The same measure for `Cc1cc(F)ccc1Oc1cc(C(F)(F)F)cc(C(F)(F)F)c1C(=O)Nc1ccc(C(=O)O)cc1` [Compound 9, 4-(2-(4-fluoro-2-methylphenoxy)-4,6-bis(trifluoromethyl)benzamido)benzoic acid]: 130 nM; for `COc1cc(F)ccc1Oc1cc(C(F)(F)F)cc(C(F)(F)F)c1C(=O)Nc1ccc(C(=O)O)cc1` [Compound 10, 4-(2-(4-fluoro-2-methoxyphenoxy)-4,6-bis(trifluoromethyl)benzamido)benzoic acid]: 37 nM; for `O=C(O)c1ccc(NC(=O)c2c(Oc3ccc(F)cc3)cc(C(F)(F)F)cc2C(F)(F)F)cc1` [Compound 11, 4-(2-(4-fluorophenoxy)-4,6-bis(trifluoromethyl)benzamido)benzoic acid]: 305 nM.
Compound `COc1cc(F)ccc1Oc1cc(Cl)c(Cl)cc1C(=O)Nc1ccc(C(=O)O)cc1` [Compound 12, 4-(4,5-dichloro-2-(4-fluoro-2-methoxyphenoxy)benzamido)benzoic acid] returned a 50% inhibitory concentration (IC50) of 11 nM.
With `O=C(O)c1ccc(NC(=O)c2cc(Cl)c(Cl)cc2Oc2ccc(F)cc2)cc1` [Compound 13, 4-(4,5-dichloro-2-(4-fluorophenoxy)benzamido)benzoic acid], the 50% inhibitory concentration (IC50) is 58 nM.
Turning to `Cc1cc(F)ccc1Oc1cc(Cl)c(Cl)cc1C(=O)Nc1ccc(C(=O)O)cc1` [Compound 14, 4-(4,5-dichloro-2-(4-fluoro-2-methylphenoxy)benzamido)benzoic acid], the IC50 was 15 nM.
Compound `O=C(O)c1ccc(NC(=O)c2cc(Cl)c(Cl)cc2Oc2ccccc2)cc1` [Compound 15, 4-(4,5-dichloro-2-phenoxybenzamido)benzoic acid] had an IC50 of 290 nM.
To `COc1ccc(Oc2cc(Cl)c(Cl)cc2C(=O)Nc2ccc(C(=O)O)cc2)c(F)c1` [Compound 16, 4-(4,5-dichloro-2-(2-fluoro-4-methoxyphenoxy)benzamido)benzoic acid] belongs 115 nM.
The same measure for `O=C(O)c1ccc(NC(=O)c2cc(Cl)c(Cl)cc2Oc2ccc(OCC(F)(F)F)cc2)cc1` [Compound 17, 4-(4,5-dichloro-2-(4-(2,2,2-trifluoroethoxy)phenoxy)benzamido)benzoic acid]: 62 nM; for `COc1cc(Cl)ccc1Oc1cc(Cl)c(Cl)cc1C(=O)Nc1ccc(C(=O)O)cc1` [Compound 18, 4-(4,5-dichloro-2-(4-chloro-2-methoxyphenoxy)benzamido)benzoic acid]: 11 nM.
In turn, `O=C(O)c1ccc(NC(=O)c2cc(Cl)c(Cl)cc2Oc2ccccc2OC(F)F)cc1` [Compound 19, 4-(4,5-dichloro-2-(2-(difluoromethoxy)phenoxy)benzamido)benzoic acid] registered an IC50 of 66 nM.
Take `Cc1cc(Cl)ccc1Oc1cc(Cl)c(Cl)cc1C(=O)Nc1ccc(C(=O)O)cc1` [Compound 20, 4-(4,5-dichloro-2-(4-chloro-2-methylphenoxy)benzamido)benzoic acid]: it took 24 nM to reach half-maximal inhibition (IC50).
To `COc1ccc(Oc2cc(Cl)c(Cl)cc2C(=O)Nc2ccc(C(=O)O)cc2)c(OC)c1` [Compound 21, 4-(4,5-dichloro-2-(2,4-dimethoxyphenoxy)benzamido)benzoic acid] belongs 27 nM; to `COc1ccc(Oc2cc(Cl)c(Cl)cc2C(=O)Nc2ccc(C(=O)O)cc2)cc1F` [Compound 22, 4-(4,5-dichloro-2-(3-fluoro-4-methoxyphenoxy)benzamido)benzoic acid], 78 nM.
To `O=C(O)c1ccc(NC(=O)c2cc(Cl)c(Cl)cc2Oc2ccc(F)cc2Cl)cc1` [Compound 23, 4-(4,5-dichloro-2-(2-chloro-4-fluorophenoxy)benzamido)benzoic acid] belongs 33 nM.
The same measure for `O=C(O)c1ccc(NC(=O)c2cc(Cl)c(Cl)cc2Oc2ccc(F)cc2F)cc1` [Compound 24, 4-(4,5-dichloro-2-(2,4-difluorophenoxy)benzamido)benzoic acid]: 53 nM; for `COc1ccc(Oc2cc(Cl)c(Cl)cc2C(=O)Nc2ccc(C(=O)O)cc2)c(Cl)c1` [Compound 25, 4-(4,5-dichloro-2-(2-chloro-4-methoxyphenoxy)benzamido)benzoic acid]: 92 nM.
The compound `O=C(O)c1ccc(NC(=O)c2cc(Cl)c(Cl)cc2Oc2ccc(OC(F)(F)F)cc2)cc1` [Compound 26, 4-(4,5-dichloro-2-(4-(trifluoromethoxy)phenoxy)benzamido)benzoic acid] registered a 50% inhibitory concentration (IC50) of 24 nM.
Take `COc1cc(F)ccc1Oc1cc(C(F)(F)C(F)(F)F)ccc1C(=O)Nc1ccc(C(=O)O)cc1` [Compound 27, 4-(2-(4-fluoro-2-methoxyphenoxy)-4-(perfluoroethyl)benzamido)benzoic acid]: the concentration for half-maximal inhibition (IC50) came to 20 nM. The IC50 values of the last two compounds are within 1.5-fold of each other.
The same measure for `Cc1cc(F)ccc1Oc1ccc(C(F)(F)F)cc1C(=O)Nc1ccc(C(=O)O)cc1` [Compound 29, 4-(2-(4-fluoro-2-methylphenoxy)-5-(trifluoromethyl)benzamido)benzoic acid]: 245 nM.
Turning to `O=C(O)c1ccc(NC(=O)c2cc(Cl)c(Cl)cc2Oc2ccc(F)cc2)cn1` [Compound 30, 5-(4,5-dichloro-2-(4-fluorophenoxy)benzamido)picolinic acid], the IC50 came out at 34 nM.
The same measure for `Cc1cc(F)ccc1Oc1cc(Cl)c(Cl)cc1C(=O)Nc1ccc(C(=O)O)nc1` [Compound 32, 5-(4,5-dichloro-2-(4-fluoro-2-methylphenoxy)benzamido)picolinic acid]: 11 nM.
